Among the data in patent publication US8293705B2, “HCV protease inhibitors and uses thereof” (Avila Therapeutics, Inc., priority 2007, dated 2012) are EC50 and IC50 values, retold here.

A word on the pEC50: it is the negative decadic logarithm of the EC50, by convention in mol/L. As a reminder, the pIC50 is −log10 of the IC50, conventionally taken in molar units.

pEC50, pIC50: −log10 of the molar value. Where only a bound is given, the exact number is not on record here.

Assay [1] has as its system HCV RNA replicon in cell line ET (luc-ubi-neo/ET), human Huh7 hepatoma. As to the kind of experiment: Replicon luciferase assay, Example 26. In kind it is cell-based. As to conditions: Hepatitis C virus, Huh-7, assay of Example 26, 72 hr, read-out: Inhibition, Replicon, EC50 value. A digest of the protocol:
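Huh7-derived ET cells carrying a luciferase-reporter HCV replicon, 5×10^3 cells/well, exposed 72 h to six 3-fold compound concentrations in DMEM with 5% FBS. Replicon luciferase gives EC50/EC90; Cell Titer Blue cell number gives cytotoxic IC50, with SI50 as their ratio. Interferon alpha-2b served as positive control.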
A general note: Replicon systems follow genome replication, usually without infectious particles.

The target in assay [2] is T1, HCV NS3/4A 1b protease D168A (Hepatitis C virus genotype 1b, UniProt Q9WMX2, D1194A).
T1 construct: 10× stocks of NS3/4A protease enzyme from Bioenza (Mountain View, Calif.); purchased Bioenza (Mountain View, Calif.)
Briefly: HCV protease FRET assay (IC50_APP), Example 16. In kind it is biochemical.

Assay [3] has as its target T2, HCV NS3/4A 1b protease A156T (Hepatitis C virus genotype 1b, UniProt Q9WMX2, A1182T).
T2 construct: 10× stocks of NS3/4A protease enzyme from Bioenza (Mountain View, Calif.); purchased Bioenza (Mountain View, Calif.)
Briefly: HCV protease FRET assay (IC50_APP), Example 16. In kind it is biochemical.

The target of assay [4] is T3, HCV NS3/4A 1b protease C159S (Hepatitis C virus genotype 1b, UniProt Q9WMX2, C1185S).
T3 construct: 10× stocks of NS3/4A protease enzyme from Bioenza (Mountain View, Calif.); purchased Bioenza (Mountain View, Calif.)
Briefly: HCV protease FRET assay (IC50_APP), Example 16. In kind it is biochemical. As to conditions: reaction started immediately after enzyme addition, read-out: Inhibition (apparent IC50, IC50_APP), HCV C159S.

Assay [5] addresses T4, HCV NS3/4A 1b protease wild type (Hepatitis C virus genotype 1b, UniProt Q9WMX2).
T4 construct: 10× stocks of NS3/4A protease enzyme from Bioenza (Mountain View, Calif.); purchased Bioenza (Mountain View, Calif.)
Briefly: HCV protease FRET assay (IC50_APP), Example 16. In kind it is biochemical.

The target of assay [6] is T5, HCV NS3/4A 1b protease R155K (Hepatitis C virus genotype 1b, UniProt Q9WMX2, R1181K).
T5 construct: 10× stocks of NS3/4A protease enzyme from Bioenza (Mountain View, Calif.); purchased Bioenza (Mountain View, Calif.)
As to the kind of experiment: HCV protease FRET assay (IC50_APP), Example 16. The class given is biochemical. To be noted: reaction started immediately after enzyme addition, read-out: Inhibition (apparent IC50, IC50_APP), HCV R155K.

`C=C[C@@H]1C[C@]1(NC(=O)[C@@H]1CC(OC(=O)N2Cc3cccc(F)c3C2)CN1C(=O)[C@H](CC(=O)C=C(C)C)NC(=O)OC(C)(C)C)C(=O)NS(=O)(=O)C1CC1` (stereo partly drawn) [Compound I-32]: the negative-log EC50 (pEC50) in assay [1] is greater than 8.00. Besides, the negative logarithm of the IC50 (pIC50) in assay [2] is 7.00 to 8.00; in assay [3] it was greater than 8.00; in assay [4], greater than 8.00; in assay [5], greater than 8.00; in assay [6], 7.00 to 8.00.
